According to patent publication US8691761B2, “Somatostatin receptor 2 antagonists” (priority 2006, dated 2014):
Like-named read-outs stand apart in the source and are kept apart here. Bridge positions count the residues as written; N and C are the ends. Square brackets hold non-standard residues; d marks the D form. Peptide text beside a SMILES is read from it. * marks the point of attachment. Phe(4-NO2) = N[C@@H](Cc1ccc([N+](=O)[O-])cc1)C(=O)O; dPhe(4-NHCONH2) = NC(=O)Nc1ccc(C[C@@H](N)C(=O)O)cc1; Phe(4-NHCONH2) = NC(=O)Nc1ccc(C[C@H](N)C(=O)O)cc1; Phe(4-Cl) = N[C@@H](Cc1ccc(Cl)cc1)C(=O)O; X1 = NC(=O)N[C@@H](Cc1ccc(Cl)cc1)C(=O)*; 2Nal = N[C@@H](Cc1ccc2ccccc2c1)C(=O)O

Key:
hSSTR1 = biological target: T1, hSSTR1 (Homo sapiens, UniProt P30872); experiment: Receptor autoradiography, displacement of 125I-[Leu8,D-Trp22,Tyr25]-SRIF-28 from membrane pellet sections; format: binding; conditions: Table 3; mean ± SEM when N ≧ 3; read-out: sst1 binding affinity (IC50)
T1 construct: expressed in transfected cells; host or cells: CHO-K1 or CCL39 cells
T1 sequence (P30872 whole entry): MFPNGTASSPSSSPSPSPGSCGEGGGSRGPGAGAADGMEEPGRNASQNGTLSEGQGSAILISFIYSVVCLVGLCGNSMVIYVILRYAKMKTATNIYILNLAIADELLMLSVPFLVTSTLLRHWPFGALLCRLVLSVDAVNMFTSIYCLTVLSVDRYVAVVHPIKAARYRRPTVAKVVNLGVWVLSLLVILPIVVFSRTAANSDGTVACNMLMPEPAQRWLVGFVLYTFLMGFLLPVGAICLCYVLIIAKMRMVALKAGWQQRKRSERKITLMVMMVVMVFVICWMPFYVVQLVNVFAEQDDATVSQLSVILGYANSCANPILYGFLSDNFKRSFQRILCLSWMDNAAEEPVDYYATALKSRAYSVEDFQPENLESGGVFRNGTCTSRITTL
Experimental: (§1) Generally, recombinant cells expressing the receptor are washed and homogenized to prepare a crude protein homogenate in a suitable buffer. In a typical assay, an amount of protein from the cell homogenate is placed into a small volume of an appropriate assay buffer at an appropriate pH. Candidate substances, such as potential SRIF agonists and antagonists, are added to the admixture in convenient concentrations, and the interaction between the candidate substance and the receptor polypeptide is monitored.
(§2) In vitro Bioassay: The effects of the various somatostatin analogs were tested in vitro for their ability to bind to isolated cloned receptors expressed on CHO-K1 cells and CCL39 cells. The molecular cloning of the genes encoding multiple somatostatin receptor subtypes permitted the individual expression of these receptors in mammalian cells and the characterization of their respective pharmacological profiles.
(§3) CHO-K1 cells were grown in Ham's F-12 medium, and CCL39 cells were grown in Dulbecco's modified Eagle's medium/Ham's F-12(1:1) mix, supplemented with 10% fetal bovine serum, 100 U/ml penicillin and 100 μg/ml streptomycin, in humidified air containing 5% CO2 at 37° C. Cells were washed twice with and scraped into ice-cold 0.05 M Tris-HCl (pH 7.4), collected by centrifugation, and homogenized using a rotor/stator/system in the same buffer. After centrifugation at 120 g for 5 min at 4° C., the supernatant was collected and centrifuged again at 48,000 g for 30 min at 4° C. The resulting pellet was resuspended in ice-cold Tris buffer, transferred into a microfuge tube, and centrifuged at 20,000 g for 15 min at 4° C. After withdrawal of the supernatant, the membrane pellet was stored at −80° C.
(§4) Receptor autoradiography was performed on 20 μm thick cryostat sections of the membrane pellets, mounted on microscope slides, and then stored at −20° C. […] Increasing concentrations of the unlabeled peptide were used ranging from 0.1-1000 nM. […] IC50 values were calculated after quantification of the data using a computer-assisted image processing system as known in this art.
(§5) The numbers in parentheses indicate the number of times the particular binding test was carried out.
(§6) Receptor autoradiography. Cell membrane pellets were prepared as previously described, and stored at −80° C. Receptor autoradiography was performed on 20-μm thick cryostat (Microm HM 500, Walldorf, Germany) sections of the membrane pellets, mounted on microscope slides, and then stored at −20° C. […] After a brief dip in distilled water to remove excess salts, the sections were dried quickly and exposed for 1 week to Kodak BioMax MR film. IC50 values were calculated after quantification of the data using a computer-assisted image processing system as described previously. […] (Reubi, J. C. “In vitro identification of vasoactive intestinal peptide receptors in human tumors: Implications for tumor imaging.” J. Nucl. Med. 1995, 36, 1846-1853).
(§7) To investigate their ssts binding properties, the peptides were tested for their ability to bind to cryostat sections from membrane pellets of cells expressing the five human ssts (Table 3).

hSSTR2 = biological target: T2, hSSTR2 (Homo sapiens, UniProt P30874); experiment: as above; format: binding; conditions: for IC50: Table 3, mean ± SEM when N ≧ 3
T2 construct: expressed in transfected cells; host or cells: CHO-K1 or CCL39 cells
T2 sequence (P30874 whole entry): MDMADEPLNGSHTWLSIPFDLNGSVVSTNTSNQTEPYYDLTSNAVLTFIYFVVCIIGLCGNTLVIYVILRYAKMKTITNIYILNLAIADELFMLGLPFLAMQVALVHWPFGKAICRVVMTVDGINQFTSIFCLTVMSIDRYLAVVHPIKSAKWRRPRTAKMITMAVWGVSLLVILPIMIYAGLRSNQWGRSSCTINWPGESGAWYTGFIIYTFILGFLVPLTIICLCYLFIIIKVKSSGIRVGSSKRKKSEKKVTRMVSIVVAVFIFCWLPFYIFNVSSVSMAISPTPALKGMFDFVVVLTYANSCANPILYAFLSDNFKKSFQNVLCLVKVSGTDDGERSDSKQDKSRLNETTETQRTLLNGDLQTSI
Experimental: as §1, §2, §3, §4, §5, §6, §7

hSSTR3 = biological target: T3, hSSTR3 (Homo sapiens, UniProt P32745); experiment: as above; format: binding; conditions: Table 3; mean ± SEM when N ≧ 3; read-out: sst3 binding affinity (IC50)
T3 construct: expressed in transfected cells; host or cells: CHO-K1 or CCL39 cells
T3 sequence (P32745 whole entry): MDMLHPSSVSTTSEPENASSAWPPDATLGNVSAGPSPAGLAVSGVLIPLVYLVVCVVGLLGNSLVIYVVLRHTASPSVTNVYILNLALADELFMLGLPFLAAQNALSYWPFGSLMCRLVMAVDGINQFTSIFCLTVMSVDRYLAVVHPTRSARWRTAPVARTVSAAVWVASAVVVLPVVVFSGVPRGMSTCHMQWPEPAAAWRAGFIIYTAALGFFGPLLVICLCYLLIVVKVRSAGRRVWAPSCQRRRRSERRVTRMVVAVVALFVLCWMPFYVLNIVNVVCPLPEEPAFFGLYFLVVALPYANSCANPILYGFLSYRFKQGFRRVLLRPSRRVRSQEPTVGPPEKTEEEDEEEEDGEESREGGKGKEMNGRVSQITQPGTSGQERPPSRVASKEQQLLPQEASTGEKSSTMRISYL
Experimental: as §1, §2, §3, §4, §5, §6, §7

hSSTR4 = biological target: T4, hSSTR4 (Homo sapiens, UniProt P31391); experiment: as above; format: binding
T4 construct: expressed in transfected cells; host or cells: CHO-K1 or CCL39 cells
T4 sequence (P31391 whole entry): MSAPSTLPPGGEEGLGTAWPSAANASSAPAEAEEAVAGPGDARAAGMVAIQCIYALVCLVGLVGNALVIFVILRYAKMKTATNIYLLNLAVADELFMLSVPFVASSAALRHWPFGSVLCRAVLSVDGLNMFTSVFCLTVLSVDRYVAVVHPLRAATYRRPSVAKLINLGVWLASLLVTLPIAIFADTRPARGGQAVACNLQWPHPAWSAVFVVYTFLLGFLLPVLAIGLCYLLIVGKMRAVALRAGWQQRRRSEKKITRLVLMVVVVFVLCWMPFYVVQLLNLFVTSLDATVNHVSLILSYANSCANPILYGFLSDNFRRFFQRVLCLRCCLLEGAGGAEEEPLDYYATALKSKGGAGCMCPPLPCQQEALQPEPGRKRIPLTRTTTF
Experimental: as §1, §2, §3, §4, §5, §6, §7

hSSTR5 = biological target: T5, hSSTR5 (Homo sapiens, UniProt P35346); experiment: as above; format: binding; conditions: Table 3; mean ± SEM when N ≧ 3; read-out: sst5 binding affinity (IC50)
T5 construct: expressed in transfected cells; host or cells: CHO-K1 or CCL39 cells
T5 sequence (P35346 whole entry): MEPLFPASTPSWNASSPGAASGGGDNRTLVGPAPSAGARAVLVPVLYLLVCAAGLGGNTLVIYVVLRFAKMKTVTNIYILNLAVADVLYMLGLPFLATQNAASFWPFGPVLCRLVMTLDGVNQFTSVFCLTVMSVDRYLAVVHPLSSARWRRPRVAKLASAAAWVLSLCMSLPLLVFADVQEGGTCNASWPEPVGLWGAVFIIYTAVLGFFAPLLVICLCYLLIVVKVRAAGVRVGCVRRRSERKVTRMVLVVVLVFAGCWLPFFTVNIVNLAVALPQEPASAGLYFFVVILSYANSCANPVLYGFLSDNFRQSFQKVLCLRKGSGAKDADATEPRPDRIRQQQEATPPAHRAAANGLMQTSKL
Experimental: as §1, §2, §3, §4, §5, §6, §7

human sst2A receptor = biological target: T6, human sst2A receptor (Homo sapiens, UniProt P30874); experiment: Immunofluorescence-based sst2 internalization assay in HEK-sst2 cells; format: cell-based; conditions: n ≧ 2
T6 construct: expressed in transfected cells; host or cells: HEK293 (HEK-sst2)
T6 sequence (P30874 whole entry): as the sequence (P30874 whole entry) above
Experimental: Immunofluorescence-based sst2 Internalization Assay. Immunofluorescence microscopy-based internalization assay for sst2 was performed with HEK-sst2 using the sst2-specific antibody R2-88 as described elsewhere herein. HEK-sst2 cells were treated either with vehicle alone, the sst2 agonist [Tyr^3]-octreotide at a concentration of 100 nM, [Tyr^3]-octreotide at a concentration of 100 nM in the presence of an excess of the SRIF analogues to be tested (100 times the concentration of [Tyr^3]-octreotide), or with the SRIF analogues to be tested alone at a concentration of 10 μM, and then processed for immunofluorescence microscopy as described previously.

sst2 = sst2 (Homo sapiens, UniProt P30874); experiment: Calcium release assay in HEK-sst2 cells (Fluo-4NW); format: cell-based; design: expressed in transfected cells; host or cells: HEK293 (HEK-sst2); conditions: n ≧ 2
Sequence of sst2 (P30874 whole entry): as above
Experimental: Calcium release assay. Intracellular calcium release was measured in HEK-sst2 using the Fluo-4NW Calcium Assay kit as described previously (Magrys, et al. “The role of anti-alpha-enolase autoantibodies in pathogenicity of autoimmune-mediated retinopathy.” J. Clin. Immunol. 2007, 27, 181-192; Michel et al. “The Nef protein of human immunodeficiency virus is a broad-spectrum modulator of chemokine receptor cell surface levels that acts independently of classical motifs for receptor endocytosis and Galphai signaling.” Mol. Biol. Cell. 2006, 17, 3578-3590). In brief, HEK-sst2 cells were seeded (25,000 cells per well) in poly-D-lysine (20 μg/mL) coated 96 well plates and cultured for 1 day at 37° C. and 5% CO2 in culture medium. At the day of the experiment, the cells were washed with assay buffer (1×HBSS, 20 mM HEPES) containing 2.5 mM probenecid, and then loaded with 100 μL/well Fluo-4NW dye in assay buffer containing 2.5 mM probenecid for 30 min at 37° C. and 5% CO2 and then for further 30 min at room temperature. To measure the intracellular calcium mobilization after stimulation with the SRIF analogues to be tested, the dye-loaded cells were transferred to a SpectraMax M2^e (Molecular Devices, Sunnyvale, Calif.). Intracellular calcium mobilization was recorded in a kinetic for 60 sec at room temperature monitoring fluorescence emission at 520 nm (with λex=485 nm) in the presence of the analogues at the concentrations indicated. Maximum fluorescence (Fmax) was measured after the addition of 25 μM ionomycin. Baseline (control) measurements were taken for dye-loaded, untreated cells. Data are shown as percentage of Fmax (% Fmax) as reported previously. (Magrys, et al. J. Clin. Immunol. 2007, 27, 181-192; Michel et al. Mol. Biol. Cell. 2006, 17, 3578-3590). All experiments were repeated at least three times in triplicate.

[1] = read-out: sst2 binding affinity (IC50)
[2] = Table 3, mean ± SEM when N ≧ 3, read-out: sst4 binding affinity (IC50)

SMILES | IC50 (hSSTR1) [nM] | IC50 (hSSTR2; [1]) [nM] | IC50 (hSSTR3) [nM] | IC50 (hSSTR4; [2]) [nM] | IC50 (hSSTR5) [nM] | sst2-internalization tested in vitro in HEK-sst2 cells (function) (human sst2A receptor) | Calcium release tested in vitro in HEK-sst2 cells (function) (sst2) | loss of binding affinity for sst2 as compared to 7 (hSSTR2) [fold] | IC50 (hSSTR2; sst2 binding affinity (IC50)) [nM] | IC50 (hSSTR4) [nM]
C[C@@H](O)[C@@H]1NC(=O)[C@H](CCCCN)NC(=O)[C@@H](Cc2ccc(NC(N)=O)cc2)NC(=O)[C@H](Cc2ccc(O)cc2)NC(=O)[C@H](NC(=O)[C@@H](N)Cc2ccc([N+](=O)[O-])cc2)CSSC[C@@H](C(=O)N[C@@H](Cc2ccc3ccccc3c2)C(N)=O)NC1=O [compound 4, H2N-pNO2Phe-c[DCys-Tyr-DAph(Cbm)-Lys-Thr-Cys]-2Nal-NH2] (H-[Phe(4-NO2)][dC]Y[dPhe(4-NHCONH2)]KTC[2Nal]-NH2; disulfide 2-7) | > 1000 | 2.6 | 384 | > 1000 | > 1000 | Antagonist |  |  |  | 
C[C@@H](O)[C@@H]1NC(=O)[C@H](CCCCN)NC(=O)[C@@H](Cc2c[nH]c3ccccc23)NC(=O)[C@H](Cc2ccc(NC(N)=O)cc2)NC(=O)[C@H](NC(=O)[C@@H](N)Cc2ccc(Cl)cc2)CSSC[C@@H](C(=O)N[C@@H](Cc2ccc3ccccc3c2)C(N)=O)NC1=O [compound 12, H2N-Cpa-c[DCys-Aph(Cbm)-DTrp-Lys-Thr-Cys]-2Nal-NH2] |  |  |  |  |  | Antagonist | Antagonist |  |  | 
C[C@@H](O)[C@@H]1NC(=O)[C@H](CCCCN)NC(=O)[C@@H](Cc2c[nH]c3ccccc23)NC(=O)[C@H](Cc2ccc(NC(N)=O)cc2)NC(=O)[C@H](NC(=O)[C@H](Cc2ccc(Cl)cc2)NC(=O)CCOCCOCCOCCNC(=O)CN2CCN(CC(=O)O)CCN(CC(=O)O)CCN(CC(=O)O)CC2)CSSC[C@@H](C(=O)N[C@@H](Cc2ccc3ccccc3c2)C(N)=O)NC1=O [compound 16, DOTA-Peg-Cpa-c[DCys-Aph(Cbm)-DTrp-Lys-Thr-Cys]-2Nal-NH2] |  |  |  |  |  | Antagonist |  |  |  | 
CC(=O)N[C@@H](Cc1ccc([N+](=O)[O-])cc1)C(=O)N[C@@H]1CSSC[C@@H](C(=O)N[C@H](Cc2ccc(O)cc2)C(N)=O)NC(=O)[C@H]([C@@H](C)O)NC(=O)[C@H](CCCCN)NC(=O)[C@@H](Cc2c[nH]c3ccccc23)NC(=O)[C@H](Cc2ccc(O)cc2)NC1=O [compound 1, Ac-pNO2Phe-c[DCys-Tyr-DTrp-Lys-Thr-Cys]-DTyr-NH2, reference compound] |  |  | > 1000 |  |  | Antagonist |  |  |  | 
C[C@@H](O)[C@@H]1NC(=O)[C@H](CCCCN)NC(=O)[C@@H](Cc2c[nH]c3ccccc23)NC(=O)[C@H](Cc2ccc(NC(N)=O)cc2)NC(=O)[C@H](NC(=O)[C@@H](N)Cc2ccc(Cl)cc2)CSSC[C@@H](C(=O)N[C@H](Cc2ccc(NC(N)=O)cc2)C(N)=O)NC1=O [compound 20, H2N-Cpa-c[DCys-Aph(Cbm)-DTrp-Lys-Thr-Cys]-DAph(Cbm)-NH2] | > 1000 | 5.4 | 328 ± 69 | 800 ± 295 | 191 ± 49 |  |  |  |  | 
C[C@@H](O)[C@@H]1NC(=O)[C@H](CCCCN)NC(=O)[C@@H](Cc2c[nH]c3ccccc23)NC(=O)[C@H](N(C)C(=O)c2ccccc2)NC(=O)[C@H](NC(=O)[C@@H](N)Cc2ccc(Cl)cc2)CSSC[C@@H](C(=O)N[C@@H](Cc2ccc3ccccc3c2)C(N)=O)NC1=O [compound 9, H2N-Cpa-c[DCys-L-Agl(NMe.benzoyl)-DTrp-Lys-Thr-Cys]-2Nal-NH2] |  |  |  |  |  | Antagonist |  | 3 |  | 
C[C@@H](O)[C@@H]1NC(=O)[C@H](CCCCN)NC(=O)[C@@H](Cc2c[nH]c3ccccc23)NC(=O)[C@H](Cc2ccc(NC(N)=O)cc2)NC(=O)[C@H](NC(=O)[C@H](Cc2ccc(Cl)cc2)NC(N)=O)CSSC[C@@H](C(=O)N[C@@H](Cc2ccc3ccccc3c2)C(N)=O)NC1=O [compound 13, Cbm-Cpa-c[DCys-Aph(Cbm)-DTrp-Lys-Thr-Cys]-2Nal-NH2] (X1-[dC][Phe(4-NHCONH2)][dW]KTC[2Nal]-NH2; disulfide 1-6) | > 1000 | 23 ± 4.3 | 54 ± 15 | 136 ± 7.5 | 111 ± 17 |  |  |  |  | 
C[C@@H](O)[C@@H]1NC(=O)[C@H](CCCCN)NC(=O)[C@@H](Cc2c[nH]c3ccccc23)NC(=O)[C@H](Cc2ccc(NC(N)=O)cc2)NC(=O)[C@H](NC(=O)[C@@H](N)Cc2ccc(Cl)cc2)CSSC[C@@H](C(=O)N[C@H](Cc2ccc(NC(N)=O)cc2)C(=O)NCC(=O)O)NC1=O [compound 22, H2N-Cpa-c[DCys-Aph(Cbm)-DTrp-Lys-Thr-Cys]-DAph(Cbm)-GlyOH] (H-[Phe(4-Cl)][dC][Phe(4-NHCONH2)][dW]KTC[dPhe(4-NHCONH2)]G-OH; disulfide 2-7) | > 1000 | 52 ± 4.7 | 661 ± 115 | > 1000 | 810 ± 200 |  |  |  |  | 
C[C@@H](O)[C@@H]1NC(=O)[C@H](CCCCN)NC(=O)[C@@H](Cc2c[nH]c3ccccc23)NC(=O)[C@@H](N(C)C(=O)c2ccccc2)NC(=O)[C@H](NC(=O)[C@@H](N)Cc2ccc(Cl)cc2)CSSC[C@@H](C(=O)N[C@@H](Cc2ccc3ccccc3c2)C(N)=O)NC1=O [compound 10, H2N-Cpa-c[DCys-D-Agl(NMe.benzoyl)-DTrp-Lys-Thr-Cys]-2Nal-NH2] | > 1000 |  | 102 ± 10 |  | 728 ± 272 |  |  |  | 158 ± 37 | 116 ± 47
